For the experiment, the system named is single-round infectious HIV-1 reporter virus. The experiment in a line: microbe, parasite or virus in culture. The format is cell-based. Conditions: for pEC50: Human immunodeficiency virus 1, HeLa-CD4/CCR5; for inhibition at 10 µM: Human immunodeficiency virus 1, HeLa-CD4/CCR5, 72 h, read-out: Average % inhibition at or <10 μM.

The structures appear in SMILES notation. pEC50: −log10 of the molar value.

As a reminder, the pEC50 is the EC50 on a negative log10 scale, so that one unit is a factor of ten. As usually defined, the inhibition is the percentage by which the read-out fell short of the control.

As to `C[C@@H]1CN(C(=O)c2ccccc2)[C@@H](C)CN1C(=O)C(=O)c1c[nH]c2ncccc12` (relative stereo) [Compound 5i, trans-N-(benzoyl)-2,5-dimethyl-N′-[(7-azaindol-3-yl)-oxoacetyl]-piperazine], the pEC50 is greater than 6.00 and the inhibition at 10 µM is 89%.
For the compound `C[C@@H]1CN(C(=O)c2ccccc2)CCN1C(=O)C(=O)c1c[nH]c2ncccc12` [Compound 5a, (R)-N-(benzoyl)-3-methyl-N′-[(7-azaindol-3-yl)-oxoacetyl]-piperazine], the pEC50 is greater than 6.00 and the inhibition at 10 µM is greater than 99%.
`CC(C)C1CN(C(=O)c2ccccc2)CCN1C(=O)C(=O)c1c[nH]c2ncccc12` (stereo not drawn) [Compound 5ab, N-(benzoyl)-3-iso-Propyl-N′-[(7-azaindol-3-yl)-oxoacetyl]-piperazine] had a pEC50 of less than 6.30.
On the same count and under the same terms, as for `CC(C)C1CN(C(=O)C(=O)c2c[nH]c3ncccc23)CCN1C(=O)c1ccccc1` (stereo not drawn) [Compound 5ac, N-(benzoyl)-2-iso-Propyl-N′-[(7-azaindol-3-yl)-oxoacetyl]-piperazine], the figure is less than 6.40.
The compound `CC(C)C1CN(C(=O)c2c[nH]c3ncccc23)CCN1C(=O)c1ccccc1` (stereo not drawn) [Compound 5ad, N-(benzoyl)-2-iso-Propyl-N′-[(7-azaindol-3-yl)-carbonyl]-piperazine] had a pEC50 of less than 6.30.
As for `C[C@@H]1CN(C(=O)c2ccccc2)CCN1C(=O)C(=O)c1c[nH]c2nccc(O)c12` [Compound 5ah, (R)-N-(benzoyl)-3-methyl-N′-[(4-hydroxyl-7-azaindol-3-yl)-oxoacetyl]-piperazine], the pEC50 was less than 5.30.
`CC1CN(C(=O)c2ccccc2)CCN1C(=O)C(=O)c1c[nH]c2ncccc12` (stereo not drawn) [Compound 5ai, N-(benzoyl)-3-methyl-N′-[(7-azaindol-3-yl)-oxoacetyl]-piperazine] gave a pEC50 greater than 6.00.
Take `Cc1cc(Cl)nc2c(C(=O)C(=O)N3CCN(C(=O)c4ccccc4)C[C@H]3C)c[nH]c12` [Compound 5ak, (R)-N-(benzoyl)-3-Methyl-N′-[(5-Chloro-7-methyl-4-azaindol-3-yl)-oxoacetyl]-piperazine]: the pEC50 was greater than 6.00.
The compound `COc1cnc(Cl)c2[nH]cc(C(=O)C(=O)N3CCN(C(=O)c4ccccc4)CC3)c12` [Compound 5an, N-(benzoyl)-N′-[(7-chloro-4-methoxy-6-azaindol-3-yl)-oxoacetyl]piperazine] showed a pEC50 greater than 6.00.
For `COc1ncc(OC)c2c(C(=O)C(=O)N3CCN(C(=O)c4ccccc4)CC3)c[nH]c12` [Compound 5ao, N-(benzoyl)-N′-[(4,7-dimethoxy-6-azaindol-3-yl)-oxoacetyl]piperazine], the pEC50 is greater than 6.00.
For `COc1ncc(OC)c2c(C(=O)C(=O)N3CCN(C(=O)c4ccccc4)C[C@H]3C)c[nH]c12` [Compound 5ap, ®-N-(benzoyl)-3-methyl-N′-[(4,7-dimethoxy-6-azaindol-3-yl)-oxoacetyl]piperazine], the pEC50 was greater than 6.00.
As to `CCC1CN(C(=O)C(=O)c2c[nH]c3ncccc23)CCN1C(=O)c1ccccc1` (stereo not drawn) [Compound 5b, N-(benzoyl)-2-ethyl-N′-[(7-azaindol-3-yl)-oxoacetyl]-piperazine], the pEC50 was greater than 6.00 and the inhibition at 10 µM was determined as 90%.
For `CCC1CN(C(=O)c2c[nH]c3ncccc23)CCN1C(=O)c1ccccc1` (stereo not drawn) [Compound 5c, N-(benzoyl)-2-ethyl-N′-[(7-azaindol-3-yl)-carbonyl]-piperazine], in that order: greater than 6.00 and 80%.
On to `O=C(C(=O)N1CCN(C(=O)c2ccccc2)CC1)c1c[nH]c2ncccc12` [Compound 5d, N-(benzoyl)-N′-[(7-azaindol-3-yl)-oxoacetyl]-piperazine], for which the pEC50 is greater than 6.00 and the inhibition at 10 µM amounted to 98%.
As for `CC1CN(C(=O)C(=O)c2c[nH]c3ncccc23)CCN1C(=O)c1ccccc1` (stereo not drawn) [Compound 5e, N-(benzoyl)-2-methyl-N′-[(7-azaindol-3-yl)-oxoacetyl]-piperazine], the pEC50 is greater than 6.00 and the inhibition at 10 µM is 80%.
